Assay results as given in patent US5032593A, “Method of treating bronchoconstriction with 1,3-unsymmetrical straight chain alkyl-substituted 8-phenylxanthines” (priority 1988, dated 1991).
Like-named read-outs stand apart in the source and are kept apart here.

What was measured:
Acute toxicity in mice = type: in vivo, mouse; details: for Acute Toxicity, Approximate lethal dose: i.p.'; for Acute Toxicity (comments): animals showing the side effect
A2 - Adenosine receptor = target: T1, A2 - Adenosine receptor (Rattus norvegicus, UniProt P30543); assay: Adenosine receptor binding, [3H]NECA, rat striatum homogenate; details: read-out: A2 - Adenosine receptor binding, Ki ± s.e.m.
T1 construct: rat striatum homogenate; from tissue; host or cells: rat striatum homogenate
T1 sequence (P30543 whole entry): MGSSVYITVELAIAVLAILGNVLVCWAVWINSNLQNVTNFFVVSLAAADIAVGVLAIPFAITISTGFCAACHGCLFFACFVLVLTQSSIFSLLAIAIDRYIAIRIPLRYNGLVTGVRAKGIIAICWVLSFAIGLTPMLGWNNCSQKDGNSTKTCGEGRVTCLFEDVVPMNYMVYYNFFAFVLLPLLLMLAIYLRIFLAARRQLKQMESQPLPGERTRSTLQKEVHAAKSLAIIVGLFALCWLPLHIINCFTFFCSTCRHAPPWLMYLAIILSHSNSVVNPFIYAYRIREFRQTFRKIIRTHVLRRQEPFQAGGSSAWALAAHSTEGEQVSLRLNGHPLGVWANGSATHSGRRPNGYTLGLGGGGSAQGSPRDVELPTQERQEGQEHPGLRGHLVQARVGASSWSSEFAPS
Experimental: A similar procedure utilizing rat striatum homogenate and [^3 H]NECA as ligand was employed to measure A2 -adenosine receptor binding.
The inhibition constants (Ki values) were calculated using EBDA, a log-logit iterative curve fitting program [McPhearson, Comput. Prog.

[1] = Cardiovascular effects (heart rate, blood pressure) in anesthetized guinea pigs; type: in vivo, guinea pig
Experimental: Aortic blood pressure was recorded from a pressure transducer and the signal was integrated to give a heart rate signal.
Each animal received a single intravenous injection of one compound. […] A group of control animals received injections of vehicle only. Changes in heart rate and blood pressure from pre-injection baseline values produced by drugs or vehicle were compared.

[2] = system: antigen-induced bronchoconstriction; assay: Prevention of antigen-induced bronchoconstriction in ovalbumin-sensitized guinea pigs; type: in vivo, guinea pig; details: 10 mg/kg, i.v., peak airway pressure increase as percent of vehicle animals
Excerpt: Prevention of antigen-induced bronchoconstriction Male Hartley guinea pigs were given two intraperitoneal injections each containing 50 mcg ovalbumin in a 2:1 emulsion of Freund's complete adjuvant and sterile saline, for a total of 100 mcg ovalbumin per animal. At least three weeks post sensitization injection, sensitized guinea pigs (now approximately 400-600 g) were anesthetized with an intraperitoneal injection of urethane. The carotid artery, jugular vein and the trachea were cannulated. […] Airway pressure was measured and aortic blood pressure was monitored. Body temperature was maintained.
Following a stabilization period of approximately ten minutes, drug in vehicle or vehicle alone was administered intravenously in a volume of 1 ml. All drugs were tested at a dose of 10 mg/kg. One minute post injection, ovalbumin (10 mg/ml) was aerosolized into the airway via a DeVilbiss® ultrasonic nebulizer for a thirty minute period. Peak airway pressure attained during this thirty minute period was measured.

[3] = system: histamine-induced bronchoconstriction; assay: Reversal of histamine-induced bronchoconstriction in anesthetized guinea pigs; type: in vivo, guinea pig; details: for ED50: Cavia porcellus, iv, read-out: Reversal of histamine-induced bronchoconstriction, guinea pigs, ED50 ± s.e.m. (N); for Reversal of histamine-induced bronchoconstriction, maximum effect, % (N) ± s.e.m.: maximum percent reversal, at highest dose
Experimental: Adult male guinea pigs, weighing […], were anesthetized with an intraperitoneal injection of urethane (1.5 gm/kg). After a midline neck incision, the carotid artery and jugular vein were cannulated using polyethylene tubing. The trachea was cannulated using a 15 gauge Leuer Stub. Animals were ventilated at a constant rate and volume (55 breaths per minute and 1 ml per […] body weight) using a Harvard Apparatus small animal respirator. Airway pressure was measured from a side port of the tracheal cannula, using a Statham pressure transducer. Airway pressure and blood pressure were recorded using a Gould physiograph. Body temperature was maintained with a Narco temperature control unit.
Baseline airway and blood pressures were recorded for ten minutes. Aerosolized histamine (0.01%) was then delivered to the airways via a DeVilbiss® ultrasonic nebulizer, inserted in-line between the respirator and the animal. After the histamine-induced bronchoconstriction reached a plateau, as evidenced by an increased airway pressure, a dose-response curve was determined for each compound. […] The maximum effect of each compound was determined from the reversal of bronchoconstriction, as the percent decrease in the bronchoconstrictor response, after administration of the highest dose of that compound.
The ED50 values and maximum effect (%) were calculated using SAS and PROBIT computer analysis. […] The maximum effect is the maximum percent reversal of histamine-induced bronchoconstriction produced by the test compound.

[4] = Emetic effects in ferrets; type: in vivo, ferret; details: 100 mg/kg
Experimental: Male ferrets, 12-15 weeks old, were fasted overnight prior to experimentation. Animals were given intraperitoneal injections of 100 mg/kg of compound or were dosed with vehicle for controls. Animals were then placed in cages with feed and water and observed for signs of emesis.

[5] = Solubility at the dose intended for the cardiovascular test; type: physicochemical; details: dose for guinea pig i.v. cardiovascular test
A1 - Adenosine receptor = target: T2, A1 - Adenosine receptor (Rattus norvegicus, UniProt P25099); assay: Adenosine receptor binding, [3H]cyclohexyladenosine, rat cortical membranes; details: [3H]CHA, 23° C., pH 7.4, read-out: A1 - Adenosine receptor binding, Ki ± s.e.m.
T2 construct: rat cortical tissue was homogenized in ice cold 50 mM Tris HCl buffer; from tissue; host or cells: rat cerebral cortex membranes
T2 sequence (P25099 1-326): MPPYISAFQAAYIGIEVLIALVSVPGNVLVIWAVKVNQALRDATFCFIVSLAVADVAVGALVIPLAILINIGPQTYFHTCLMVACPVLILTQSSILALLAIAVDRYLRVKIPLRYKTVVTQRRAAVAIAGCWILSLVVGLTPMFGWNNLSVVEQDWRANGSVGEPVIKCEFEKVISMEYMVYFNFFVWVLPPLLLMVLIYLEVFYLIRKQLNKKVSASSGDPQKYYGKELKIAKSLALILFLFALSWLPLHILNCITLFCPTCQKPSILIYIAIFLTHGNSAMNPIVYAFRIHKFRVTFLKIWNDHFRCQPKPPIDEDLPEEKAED
Experimental: Briefly, rat cortical tissue was homogenized in ice cold 50 mM Tris HCl buffer (pH 7.4) using a Brinkman Polytron®. The homogenate was centrifuged at 48,000×g for 10 minutes and the resulting tissue pellet was suspended in fresh cold buffer to yield a tissue concentration of 10 mg (wet weight)/ml. […] Following this incubation, the tissue suspension was centrifuged as before and the resulting pellet was suspended in fresh buffer at a concentration of 7-10 mg tissue (wet weight)/ml. […] Dose-inhibition curves were generated with 10-12 concentrations of the test compound using triplicate incubations. The inhibition constants (Ki values) were calculated using EBDA, a log-logit iterative curve fitting program [McPhearson, Comput. Prog.

phosphodiesterase = details: cited from earlier work
[6] = guinea pigs, i.v., dose required to reverse the histamine response by 50%
[7] = guinea pigs, i.v., 2 × histamine-reversal ED50

| Compound | Acute Toxicity, Approximate lethal dose (Acute toxicity in mice; N 3, route head 'p.o.) [mg/kg] | Acute Toxicity (comments) (Acute toxicity in mice) | Ki (A2 - Adenosine receptor) [nM] | % Basal blood pressure (mm Hg) ([1]; guinea pig, in vivo, iv) [%] | % Basal heart rate (N) ([1]; guinea pig, in vivo, iv) [%] | Prevention of antigen-induced bronchoconstriction, % control [2] [% control] | ED50 [3] [mg/kg] | Reversal of histamine-induced bronchoconstriction, maximum effect, % (N) ± s.e.m. ([3]; guinea pigs, i.v.) [%] | Emetic effects, episodes/responder ± s.e. ([4]; ferrets, i.p., 1 hour) [episodes/responder] | Emetic effects, no. responding / no. tested in 1 hour ([4]; in vivo, ip) | ED50 [3, 6] [mg/kg] | solubility at 2 × ED50 [5] | Ki (A1 - Adenosine receptor) [nM] | % Basal blood pressure (mm Hg) [1, 7] [%] | % Basal heart rate (N) [1, 7] [%] | Acute Toxicity, Approximate lethal dose (Acute toxicity in mice; second printed line of values, N 6, route head 'p.o.) [mg/kg] | Emetic effects, no. responding / no. tested in 1 hour ([4]; ferrets, i.p., 1 hour) | inhibition of phosphodiesterase (phosphodiesterase) |
| --- | --- | --- | --- | --- | --- | --- | --- | --- | --- | --- | --- | --- | --- | --- | --- | --- | --- | --- |
| Cn1c(=O)c2[nH]c(-c3ccccc3)nc2n(C)c1=O [1,3-Dimethyl-8-phenylxanthine] | < 250 | sedation 3/3 | 644 ± 144 | 94 ± 22 | 102 ± 9 | 71.7 ± 1.6 | > 50 | 22.0 ± 3.9 | 0 | 0/4 |  |  |  |  |  |  |  |  |
| CCCn1c(=O)c2[nH]c(-c3ccccc3)nc2n(CCC)c1=O [1,3-Dipropyl-8-phenylxanthine] | > 250 |  | 116 ± 100 |  |  | 98.1 ± 12.4 |  | 33.8 ± 8.5 |  |  | > 50 | insoluble | 2.75 ± 0.29 |  |  |  |  |  |
| CCCn1c(=O)n(C)c(=O)c2[nH]c(-c3ccccc3)nc21 [1-Methyl-3-propyl-8-phenylxanthine, 1-Methyl-3-n-propyl-8-phenylxanthine] | > 250 |  | 93 ± 10.2 |  |  | 106.5 ± 9.7 |  | 56.3 ± 3.2 |  |  | 16.9 ± 2 |  | 6.3 ± 0.17 | 86 ± 10 | 104 ± 4 |  |  |  |
| CCCn1c(=O)c2[nH]c(-c3ccccc3)nc2n(C)c1=O [3-Methyl-1-propyl-8-phenylxanthine, 3-Methyl-1-n-propyl-8-phenylxanthine] | > 500 | sedation 6/6 | 553 ± 55.7 |  |  | 36.5 ± 2.0 |  | 79.0 ± 3.4 | 2 |  | 2.1 ± 0.4 |  |  | 134 | 100 ± 3 | 250 to 500 | 2/8 |  |
| CC(C)Cn1c(=O)n(C)c(=O)c2[nH]cnc21 [IBMX, 3-isobutyl-1-methylxanthine] |  |  |  |  |  |  |  |  |  |  |  |  |  |  |  |  |  | potent inhibitors of phosphodiesterase |
| Cn1c(=O)c2[nH]cnc2n(C)c1=O [Theophylline] |  | seizures 6/6 |  |  |  |  | 35.1 ± 5.3 | 72.8 ± 6.6 | 10.7 ± 3.7 |  |  |  |  | 66 ± 8 | 132 ± 4 |  | 7/8 |  |
